As a reminder, the IC50 is the concentration at which inhibition is half-maximal. A low value points to higher potency.

This note sets out measurements from BindingDB's records for patent US20240025883 (Hoffmann-La Roche, 2024).

Uracil nucleotide/cysteinyl leukotriene receptor, sequence (Q13304 whole entry, canonical isoform): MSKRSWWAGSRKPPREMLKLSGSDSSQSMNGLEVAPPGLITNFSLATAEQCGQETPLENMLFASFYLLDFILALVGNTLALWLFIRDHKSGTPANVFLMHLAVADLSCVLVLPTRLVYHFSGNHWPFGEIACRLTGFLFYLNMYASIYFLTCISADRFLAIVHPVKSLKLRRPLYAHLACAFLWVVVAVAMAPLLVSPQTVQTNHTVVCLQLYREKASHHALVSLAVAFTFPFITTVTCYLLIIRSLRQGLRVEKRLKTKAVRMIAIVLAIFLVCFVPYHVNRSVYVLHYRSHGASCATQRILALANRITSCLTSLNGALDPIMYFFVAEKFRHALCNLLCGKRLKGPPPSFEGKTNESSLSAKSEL

The experiment concerns the target Uracil nucleotide/cysteinyl leukotriene receptor (Homo sapiens, UniProt Q13304). As to the kind of experiment: GPR17 cAMP Assay Protocol. How it is done:
GPR17 cAMP Assay Protocol: CHO-K1 cells stably expressing vector containing untagged human GPR17 short isoform (Roche) were cultured at 37° C./5% CO2 in DMEM (Dulbecco's Modified Eagle Medium):F-12 (1:1) supplemented with 10% foetal bovine serum and 400 μg/ml Geneticin. Changes in intracellular cyclic adenosine monophosphate (cAMP) levels were quantified using the Nano-TRF Detection Assay kit (Roche Diagnostics, Cat. No. 05214386001). This assay allows for direct cAMP quantification in a homogeneous solution, cAMP is detected based on time-resolved fluorescence energy transfer (TR-FRET) and competitive binding of ruthenylated cAMP and endogenous cAMP to an anti-cAMP monoclonal antibody labeled with AlexaFluor-700. The Ruthenium complex serves as the FRET donor and transfers energy to AlexaFluor-700. The FRET signal is inversely proportional to the cAMP concentration. CHO-GPR17S cells were detached with Accutase and resuspended in assay buffer consisting of Hank's Balanced Salt Solution (HBSS), 10 mM HEPES (4-(2-hydroxyethyl) piperazine-1-ethanesulfonic acid solution) and 0.1% bovine serum albumin (pH 7.4). The cells were seeded in black 384-well plates (Corning) at a density of 10,000 cells/20 μl assay buffer until the addition of compounds.
`COc1nc(NS(=O)(=O)c2c[nH]c3c(C#N)c(Cl)ccc23)nc(OC)c1OCCF` [US20240025883, Example 225] showed an IC50 of 0.032 µM.
The compound `COc1nc(NS(=O)(=O)c2c[nH]c3nc(C(F)F)ccc23)nc(OC)c1OC(F)(F)CF` [US20240025883, Example 97] gave an IC50 of 0.05 µM.
In the case of `COc1nc(NS(=O)(=O)c2c[nH]c3nc(C(F)F)ccc23)nc(OC)c1OCCF` [US20240025883, Example 95] it was 0.068 µM; in that of `COc1nc(NS(=O)(=O)c2c[nH]c3nc(C(F)F)ccc23)nc(OC)c1OCC(F)F` [US20240025883, Example 96], 0.029 µM.
`COc1nc(NS(=O)(=O)c2c[nH]c3cc(SC)ccc23)ncc1CC(F)F` [US20240025883, Example 193] gave an IC50 of 0.096 µM.
`COc1nc(NS(=O)(=O)c2c[nH]c3cc(Cl)ccc23)nc(OC)c1OC(F)(F)CF` [US20240025883, Example 55] came in with an IC50 of 0.017 µM.
`COc1nc(NS(=O)(=O)c2c[nH]c3cc(Cl)ccc23)nc(OC)c1OCC(F)F` [US20240025883, Example 54]: the midpoint of inhibition, the IC50, lay at 0.017 µM.
For `COc1nc(NS(=O)(=O)c2c[nH]c3cc(C(F)F)ccc23)nc(OC)c1OCC(F)F` [US20240025883, Example 102], the IC50 came out at 0.014 µM.
The same measure for `COc1nc(NS(=O)(=O)c2c[nH]c3cc(F)ccc23)nc(OC)c1OC(F)(F)CF` [US20240025883, Example 87]: 0.066 µM.
In the case of `COc1nc(NS(=O)(=O)c2c[nH]c3c(C#N)c(Cl)ccc23)nc(OC)c1OCC(F)F` [US20240025883, Example 226] it was 0.035 µM; in that of `COc1nc(NS(=O)(=O)c2c[nH]c3c(C#N)c(Cl)ccc23)nc(OC)c1CC(F)F` [US20240025883, Example 227], 0.022 µM.
Compound `COc1nc(NS(=O)(=O)c2c[nH]c3c4c(ccc23)COC4)ncc1CC(F)F` [US20240025883, Example 228] had a half-maximal inhibitory concentration (IC50) of 0.161 µM.
